Laboratory results as given in patent US20150072933A1, “NOVEL SEQUENCES FOR THE CONTROL OF REPRODUCTION IN FISH” (Yissum Research Development Company of the Hebrew …, priority 2011, published 2015).
Entries after “also recorded” stand apart in the source; their conditions may differ. *1 amine or outer side, *2 acyl side, *3 side chain or, on linkers, in order; H or OH if unused. Where a SMILES comes first, the peptide text is derived from it. Where no end group is shown, it is not given here. [ ]: non-standard residue; d: D form. Suc = O=C(CCC(=O)[*:2])[*:1]; NMeV = CN[C@H](C(=O)O)C(C)C

What was measured:
[1] = molecular target: T1, huNK3R (Homo sapiens, UniProt P29371); experiment: Receptor transactivation assay, SRE-Luc reporter (PKC activation), COS-7 cells expressing human NK3R; type: cell-based
T1 construct: host or cells: COS-7
T1 sequence (P29371 1-465): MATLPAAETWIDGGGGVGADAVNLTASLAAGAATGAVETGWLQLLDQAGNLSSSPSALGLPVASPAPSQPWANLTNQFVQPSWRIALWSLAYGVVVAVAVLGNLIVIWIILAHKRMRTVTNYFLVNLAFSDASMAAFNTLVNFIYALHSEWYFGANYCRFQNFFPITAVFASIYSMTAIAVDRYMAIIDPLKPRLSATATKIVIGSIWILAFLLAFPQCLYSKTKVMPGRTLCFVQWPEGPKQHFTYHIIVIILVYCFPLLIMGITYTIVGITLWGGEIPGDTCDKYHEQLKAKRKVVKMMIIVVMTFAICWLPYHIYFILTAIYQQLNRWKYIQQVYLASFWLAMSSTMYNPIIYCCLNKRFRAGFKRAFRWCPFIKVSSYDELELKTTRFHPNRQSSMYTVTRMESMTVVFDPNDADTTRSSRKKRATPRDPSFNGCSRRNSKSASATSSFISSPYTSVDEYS

[2] = test system: sexually mature female zebrafish; experiment: In vivo effect of NKBs in zebrafish: LH secretion after intraperitoneal injection; details: single intraperitoneal injection
Method: In vivo studies involved administering NKBa, NKBb or NKF and the analogues thereof, denoted by SEQ ID NO. 40-42 and 44-46, respectively to immature fish (20 fish/treatment). The circulating levels of E2, 11KT, LH and FSH were determined prior to hormonal manipulations, in order to confirm that these fish were indeed sexually immature. The fish were injected intramuscularly (i.m.) or intraperitonealy (i.p.) at various doses. Adult female zebra fish were injected intraperitoneally with 20 pmol/g body weight. Control fish were injected with saline. Plasma samples were collected at time 0, and specific times after the administration of the peptide/s, to determine the levels of E2, 11KT, LH and FSH.
To further characterize the role of the NKB/NKBR system in fish reproduction the in vivo biological function of zebrafish NKB peptides was next examined.

[3] = test system: zfTac3rb; experiment: Receptor transactivation assay, SRE-Luc reporter (PKC activation), COS-7 cells expressing zfTac3rb; type: cell-based, zebrafish; details: mean ± SEM
Method: (§1) In order to study the signaling pathways of the novel zebrafish NKBs, the entire coding regions of zftac3ra (denoted by SEQ ID NO:6) or zftac3rb (denoted by SEQ ID NO:7), or the cDNA clone for human NK3R (obtained from the Missouri S&T cDNA Resource Center, were inserted into pcDNA3.1 (Invitrogen). The luciferase assay was conducted according to Biran et al., 2008 [4] COS-7 cells were grown in DMEM supplemented with 10% FBS, 1% glutamine, 100 U/ml penicillin, and […] streptomycin (Biological Industries) under 5% CO2 until confluent. Cotransfection of either pc-zftac3ra, pc-zftac3rb or pc-Htac3r (at 3 μg/plate), a reporter plasmid (at 2 μg/plate), and pCMV-β-galactosidase (at 1 μg/plate) was carried out with FuGENE 6.0 reagent (Roche). The cells were serum starved for 36 h, stimulated with vehicle or various concentrations of either human (Sigma) or zebrafish NKBs for 6 h, and then harvested and analyzed. Lysates prepared from the harvested cells were assayed for both luciferase activity and β-galactosidase activity, which was used as an internal standard to normalize the luciferase activity directed by the test plasmid. Transfection experiments were performed in triplicate with three independently isolated sets. Protein structure prediction of zebrafish NKBa, NKBb or NKF were performed on I-Tasser servers.
(§2) The response, binding selectivity and signal transduction pathways of the novel tachykinin receptors to their agonists were evaluated by functional expression analysis, using COS-7 cells.
(§3) The NKB analogues (i.e. the NKBa-analog, NKBb-analog and NKF-analog, as denoted by SEQ ID NO. 44-46) were first analyzed in comparison to their native forms in a transactivation assay, using reporter genes for specific signal transduction pathways. To validate the specificity of the serum-responsive element (SRE)-Luc and cAMP-responsive element (CRE)-Luc reporter systems, specific activators for PLC/PKC and AC/PKA signaling pathways were used in control experiments.
(§4) Thus, the ability of the three novel piscine peptides (namely, NKBa, NKBb and NKF, denoted by SEQ ID NO.40, 41 and 42), as well as the ability of the three analogous agonistic peptides, namely, NKBa-analog, NKBb-analog and NKF-analog, to differentially activate the different tac3 receptors, using SRE as a reporter gene that follows PKC activation and CRE as a reporter gene for the PKA pathway, was tested. Human NK3R (human NKB receptor) and human NKB served as controls.

[4] = test system: zfTac3ra; experiment: Receptor transactivation assay, CRE-Luc reporter (PKA activation), COS-7 cells expressing zfTac3ra; type: cell-based, zebrafish; details: mean ± SEM
Method: as §1, §2, §3, §4

[5] = test system: zfTac3ra; experiment: Receptor transactivation assay, SRE-Luc reporter (PKC activation), COS-7 cells expressing zfTac3ra; type: cell-based, zebrafish; details: mean ± SEM
Method: as §1, §2, §3, §4

[6] = test system: zfTac3rb; experiment: Receptor transactivation assay, CRE-Luc reporter (PKA activation), COS-7 cells expressing zfTac3rb; type: cell-based, zebrafish; details: mean ± SEM
Method: as §1, §2, §3, §4

[7] = molecular target: T2, NKB receptors (human NKBR, zebrafish Tac3ra, Tac3rb) (Homo sapiens, UniProt P29371); experiment: Receptor transactivation assay, statements in words across SRE-Luc and CRE-Luc reporters and receptors; type: cell-based; details: human NKBR (huNK3R), in both signal transduction systems (SRE-Luc and CRE-Luc)
T2 construct: expressed in transfected cells; host or cells: COS-7
T2 sequence (P29371 1-465): T1 sequence (P29371 1-465)
Method: as §1, §2, §4

[8] = test system: NKB receptors (human NKBR, zebrafish Tac3ra, Tac3rb); experiment: as above; type: cell-based
Method: as §1, §2, §4

[9] = test system: Mature female carp; experiment: Gonadotropin release from mature carp in vivo (LH by ELISA); details: mature female carp just before spawning, injected 20 μg/kg body weight; listed as NKBb analogue
Method: Mature female carp, just before spawning, were injected with NKBa, NKBb and NKF analogues, denoted by SEQ ID NO.44, SEQ ID NO.45 and SEQ ID NO.46, respectively (20 μg/kg body weight). LH levels was measured by specific ELISA, according to Aizen et al. 2012 [33].

[10] = molecular target: T3, zebrafish Tac3rb (tac3 receptor b, NKB receptor) (zebrafish); experiment: cell-based or functional assay
T3 chain: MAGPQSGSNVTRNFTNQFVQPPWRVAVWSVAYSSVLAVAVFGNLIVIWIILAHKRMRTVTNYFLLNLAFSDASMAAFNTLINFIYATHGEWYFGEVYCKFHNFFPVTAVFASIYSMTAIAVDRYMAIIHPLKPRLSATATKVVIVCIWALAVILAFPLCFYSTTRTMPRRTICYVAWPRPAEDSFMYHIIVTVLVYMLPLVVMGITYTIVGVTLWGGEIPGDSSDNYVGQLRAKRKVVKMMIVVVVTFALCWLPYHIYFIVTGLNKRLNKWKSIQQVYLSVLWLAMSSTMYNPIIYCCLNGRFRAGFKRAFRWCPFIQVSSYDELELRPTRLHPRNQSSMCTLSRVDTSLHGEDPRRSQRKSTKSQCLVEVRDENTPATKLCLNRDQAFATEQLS

[11] = molecular target: T4, zebrafish Tac3ra (tac3 receptor a, NKB receptor) (zebrafish); experiment: cell-based or functional assay
T4 chain: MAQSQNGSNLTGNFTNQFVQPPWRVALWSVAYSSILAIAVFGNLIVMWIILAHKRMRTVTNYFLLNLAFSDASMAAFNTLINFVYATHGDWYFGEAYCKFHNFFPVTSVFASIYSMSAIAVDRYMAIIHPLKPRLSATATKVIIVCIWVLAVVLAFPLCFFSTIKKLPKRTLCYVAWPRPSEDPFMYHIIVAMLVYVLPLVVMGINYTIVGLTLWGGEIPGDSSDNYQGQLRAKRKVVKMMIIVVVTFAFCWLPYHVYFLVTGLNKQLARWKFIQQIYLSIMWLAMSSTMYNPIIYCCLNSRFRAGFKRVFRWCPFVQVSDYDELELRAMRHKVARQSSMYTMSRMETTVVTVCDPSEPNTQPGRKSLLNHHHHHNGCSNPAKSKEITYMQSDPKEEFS

[12] = molecular target: T5, human NK3R (human NKB receptor) (human, UniProt P29371 1-465); experiment: cell-based or functional assay
T5 sequence (looked up): T1 sequence (P29371 1-465)

[13] = molecular target: T3, zebrafish Tac3rb (tac3 receptor b, NKB …); experiment: cell-based or functional assay
[14] = molecular target: T4, zebrafish Tac3ra (tac3 receptor a, NKB …); experiment: cell-based or functional assay
[15] = molecular target: T5, human NK3R (human NKB receptor); experiment: cell-based or functional assay; remark: listed apart in the source
[16] = molecular target: T3, zebrafish Tac3rb (tac3 receptor b, NKB …); experiment: cell-based or functional assay
[17] = molecular target: T4, zebrafish Tac3ra (tac3 receptor a, NKB …); experiment: cell-based or functional assay
[18] = molecular target: T5, human NK3R (human NKB receptor); experiment: cell-based or functional assay; remark: listed apart in the source
[19] = Table 7 (native peptides and analogues), PKC activation, read-out: EC50 using SRE, zfTac3rb
[20] = Table 6 (native peptides and analogues), PKA activation, read-out: EC50 using CRE-Luc, zfTac3ra
[21] = Table 7 (native peptides and analogues), PKC activation, read-out: EC50 using SRE, zfTac3ra
[22] = Table 6 (native peptides and analogues), PKA activation, read-out: EC50 using CRE-Luc, zfTac3rb

## CC[C@H](C)[C@H](NC(=O)[C@H](CC(=O)O)NC(=O)[C@H](Cc1c[nH]cn1)NC(=O)[C@H](CCSC)NC(=O)[C@@H](N)CCC(=O)O)C(=O)N[C@@H](Cc1ccccc1)C(=O)N[C@H](C(=O)NCC(=O)N[C@@H](CC(C)C)C(=O)N[C@@H](CCSC)C(N)=O)C(C)C [zfNKBa] (H-EMHDIFVGLM-NH2)
[1]; COS-7 cells transiently transfected with human NK3R
  SRE-driven luciferase activity, response: elicited an increased response
[1]; Table 5, COS-7 cells, SRE-Luc follows PKC activation, mean ± SEM
  EC50: 0.49 ± 0.18 nM
[2]; 20 pmol/g body weight, sexually mature female zebrafish
  LH secretion: significant increase; also recorded: significant LH secretion
[2]; compared with GnRH
  magnitude of the induced LH discharge: comparable with that observed in response to GnRH
[3]; Table 5, COS-7 cells, SRE-Luc follows PKC activation, read-out: EC50 SRE-Luc zfTac3rb
  EC50: 1.47 ± 1.66 nM
[3]; [19]
  EC50: 26.1 nM
[4]; Table 5, COS-7 cells, CRE-Luc follows PKA activation, read-out: EC50 CRE-Luc zfTac3ra
  EC50: 5.75 ± 1.45 nM
[4]; [20]
  EC50: 4.75 ± 1.48 nM
[5]; Table 5, COS-7 cells, SRE-Luc follows PKC activation, read-out: EC50 SRE-Luc zfTac3ra
  EC50: 0.5 ± 0.17 nM
[5]; [21]
  EC50: 0.62 ± 0.22 nM
[6]; Table 5, COS-7 cells, CRE-Luc follows PKA activation, read-out: EC50 CRE-Luc zfTac3rb
  EC50: 4.55 ± 1.57 nM
[6]; Table 6 (native peptides and analogues), PKA activation, listed as NKBa, read-out: EC50 using CRE-Luc, zfTac3rb
  EC50: 16 nM
[6]; [22]
  EC50: 16.4 ± 12 nM
[7]
  potency: high potency
[8]; both zebrafish tac3 receptors, in both signal transduction systems
  potency: most potent among all tachykinins examined
[8]; native peptides versus analogues, Example 12
  effectiveness in the transactivation assay: most effective peptide

## CSCC[C@H](NC(=O)[C@H](CC(C)C)NC(=O)CNC(=O)[C@H](C(C)C)N(C)C(=O)[C@H](Cc1ccccc1)NC(=O)[C@H](CC(=O)O)NC(=O)CCC(=O)O)C(N)=O [zfNKBb-analog, Succ-Asp-Phe-N(Me)Val-Gly-Leu-Met-NH2] (Suc-DF[NMeV]GLM-NH2)
[3]; [19]
  EC50: 0.23 nM
[9]
  LH level: significant elevation; also recorded: increased the level of LH significantly
[4]; Table 6 (native peptides and analogues), PKA activation, listed as NKBb-analog, read-out: EC50 using CRE-Luc, zfTac3ra
  EC50: 1.7 nM
[4]; [20]
  EC50: 1.68 ± 1.21 nM
[5]; [21]
  EC50: 0.06 nM
[6]; Table 6 (native peptides and analogues), PKA activation, listed as NKBb-analog, read-out: EC50 using CRE-Luc, zfTac3rb
  EC50: 2.2 nM
[6]; [22]
  EC50: 2.18 ± 1.34 nM

## YNDIDYDSFVGLM-NH2 [Zebrafish Tac3f peptide, neurokinin F (YNDIDYDSFVGLM-NH2)]
[10]
  EC50, CRE-Luc reporter (PKA activation), transfected COS-7 cells: 1.8 nM
  EC50, SRE-Luc reporter (PKC activation), transfected COS-7 cells: 0.36 nM
[11]
  EC50, CRE-Luc reporter (PKA activation), transfected COS-7 cells: 4.94 nM
  EC50, SRE-Luc reporter (PKC activation), transfected COS-7 cells: 0.54 nM
[12]
  EC50, CRE-Luc reporter (PKA activation), transfected COS-7 cells: 4.36 nM
  EC50, SRE-Luc reporter (PKC activation), transfected COS-7 cells: 0.52 nM
[13]
  EC50, CRE-Luc to follow PKA activation, transfected COS-7 cells: 1.8 nM
[14]
  EC50, CRE-Luc to follow PKA activation, transfected COS-7 cells: 4.94 nM
[15]
  EC50, CRE-Luc to follow PKA activation, transfected COS-7 cells: 4.36 nM
[16]
  EC50, SRE reporter gene that follows PKC activation, transfected COS-7 cells: 0.37 nM
[17]
  EC50, SRE reporter gene that follows PKC activation, transfected COS-7 cells: 0.55 nM
[18]
  EC50, SRE reporter gene that follows PKC activation, transfected COS-7 cells: 0.52 nM
